Measured values from patent US20110082130A1 (LIGAND PHARMACEUTICALS, INC., priority 2006, published 2011).

Each compound was assayed against T1, chimeric human H3 receptor (Homo sapiens, UniProt Q9Y5N1) (assay: Chimeric human H3 receptor GTP binding assay (agonist-stimulated GTP-gamma35S binding, Example 7)). Conditions: Table I; P2 membranes of Sf9 cells, 1 μM histamine as agonist, Ki from IC50 by Cheng-Prusoff.
T1 construct: made in house; host or cells: Sf9 insect cells (baculovirus); P2 membrane preparation
Type: biochemical
Procedure, shortened: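 Sf9 membranes co-expressing chimeric human H3 receptor and heterotrimeric G-protein, 35 μg/tube, in pH 7.4 Tris buffer with 10 μM GDP. Test compounds (10^−10–10^−6 M) competed against 1 μM histamine, […] GTP-gamma35S, 60 min at room temperature. Filter-bound radioactivity counted; IC50 converted to Ki by Cheng-Prusoff. Agonism/inverse agonism tested without histamine (EC50).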

T1 sequence (Q9Y5N1 with tags, fused parts or gaps): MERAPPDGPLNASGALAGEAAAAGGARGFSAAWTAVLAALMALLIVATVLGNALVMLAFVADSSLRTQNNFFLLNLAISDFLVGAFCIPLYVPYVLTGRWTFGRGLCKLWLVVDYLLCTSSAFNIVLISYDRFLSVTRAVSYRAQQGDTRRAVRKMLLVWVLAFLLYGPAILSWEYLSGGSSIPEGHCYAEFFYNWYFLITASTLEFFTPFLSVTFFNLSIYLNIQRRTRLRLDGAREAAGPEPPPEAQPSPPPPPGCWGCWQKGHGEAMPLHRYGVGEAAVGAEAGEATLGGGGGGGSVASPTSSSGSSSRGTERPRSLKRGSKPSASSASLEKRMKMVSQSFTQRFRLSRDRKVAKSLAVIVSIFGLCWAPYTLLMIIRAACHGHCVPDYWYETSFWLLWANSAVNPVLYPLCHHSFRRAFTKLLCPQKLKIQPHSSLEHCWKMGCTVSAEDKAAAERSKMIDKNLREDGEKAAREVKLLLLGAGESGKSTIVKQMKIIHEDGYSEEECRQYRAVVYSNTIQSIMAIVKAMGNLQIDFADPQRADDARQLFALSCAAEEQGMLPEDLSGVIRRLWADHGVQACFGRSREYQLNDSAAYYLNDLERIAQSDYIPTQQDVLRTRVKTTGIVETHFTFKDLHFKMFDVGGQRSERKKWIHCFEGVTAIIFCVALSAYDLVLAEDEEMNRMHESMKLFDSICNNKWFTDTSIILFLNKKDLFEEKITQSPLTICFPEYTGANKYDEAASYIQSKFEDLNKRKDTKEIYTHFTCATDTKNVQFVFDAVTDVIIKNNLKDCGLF

Compound	Ki [µM]
O=C(CN1CCc2cncnc2CC1)N1CCN(C2CCC2)CC1 [Compound 80, 7-[2-(4-cyclobutylpiperazin-1-yl)-2-oxoethyl]-6,7,8,9-tetrahydro-5H-pyrimido[4,5-d]azepine]	< 1
O=C(CN1CCc2cc(-c3ccncc3)ccc2C1)N1CCN(C2CCC2)CC1 [Compound 75, 2-[2-(4-cyclobutylpiperazin-1-yl)-2-oxoethyl]-6-pyridin-4-yl-1,2,3,4-tetrahydroisoquinoline]	< 1
N#Cc1ccc2c(c1)CCN(CC(=O)N1CCN(C3CCC3)CC1)C2 [Compound 69, 2-[2-(4-cyclobutylpiperazin-1-yl)-2-oxoethyl]-1,2,3,4-tetrahydroisoquinoline-6-carbonitrile]	< 1
O=C(CN1CCc2cc(-c3cncnc3)ccc2C1)N1CCN(C2CCC2)CC1 [Compound 70, 2-[2-(4-cyclobutylpiperazin-1-yl)-2-oxoethyl]-6-pyrimidin-5-yl-1,2,3,4-tetrahydrasoquinoline]	< 1
CNC(=O)c1ccc(-c2ccc3c(c2)CCN(CC(=O)N2CCN(C4CCC4)CC2)C3)cc1 [Compound 72, 4-{2-[2-(4-cyclobutylpiperazin-1-yl)-2-oxoethyl]-1,2,3,4-tetrahydroisoquinolin-6-yl}-N-methylbenzamide]	< 1
COc1ccc(-c2ncc3c(n2)CCN(CC(=O)N2CCN(C4CCC4)CC2)C3)cc1 [Compound 76, 6-[2-(4-cyclobutylpiperazin-1-yl)-2-oxoethyl]-2-(4-methoxyphenyl)-5,6,7,8-tetrahydropyrido[4,3-d]pyrimidine]	< 1

Same assay, conditions: Table II "Ki", symbol *; assay of Example 7

Compound	Ki [µM]
CCC(C)Nc1ccc2c(n1)CCN(CC(=O)N1CCN(C3CCC3)CC1)C2 (stereo not drawn) [Compound 655, N-sec-butyl-6-[2-(4-cyclobutylpiperazin-1-yl)-2-oxoethyl]-5,6,7,8-tetrahydro-1,6-naphthyridin-2-amine]	< 1
C[C@@H]1CN(C(=O)CN2CCc3cc(-c4cncnc4)ccc3C2)CCN1C1CCCC1 [Compound 611, 2-{2-[(3R)-4-cyclopentyl-3-methylpiperazin-1-yl]-2-oxoethyl}-6-pyrimidin-5-yl-1,2,3,4-tetrahydroisoquinoline]	< 1
C[C@H]1CN(C(=O)CN2CCc3cc(-c4cncnc4)ccc3C2)CCN1C1CCCCC1 [Compound 616, 2-{2-[(3S)-4-cyclohexyl-3-methylpiperazin-1-yl]-2-oxoethyl}-6-pyrimidin-5-yl-1,2,3,4-tetrahydroisoquinoline]	< 1
Cc1ccc(-c2ccc3c(c2)CCN(CC(=O)N2CCN(C4CCC4)CC2)C3)nc1 [Compound 629, 2-[2-(4-cyclobutylpiperazin-1-yl)-2-oxoethyl]-6-(5-methylpyridin-2-yl)-1,2,3,4-tetrahydroisoquinoline]	< 1
COCc1ccc(-c2ccc3c(c2)CCN(CC(=O)N2CCN(C4CCC4)CC2)C3)nc1 [Compound 646, 2-[2-(4-cyclobutylpiperazin-1-yl)-2-oxoethyl]-6-[5-(methoxymethyl)pyridin-2-yl]-1,2,3,4-tetrahydroisoquinoline]	< 1

Same assay, conditions: Table II; "*" = Ki in assay of Example 7 less than 1 micromolar

Compound	Ki [µM]
CC1CCCC1N1CCN(C(=O)CN2CCc3nc(N4CCCC4)ncc3C2)CC1 (stereo not drawn) [Compound 218, 6-{2-[4-(2-methylcyclopentyl)piperazin-1-yl]-2-oxoethyl}-2-pyrrolidin-1-yl-5,6,7,8-tetrahydropyrido[4,3-d]pyrimidine]	< 1
O=C(CN1CCc2[nH]c(=O)ccc2C1)N1CCN(C2CCCC2)CC1 [Compound 133, 6-[2-(4-cyclopentylpiperazin-1-yl)-2-oxoethyl]-5,6,7,8-tetrahydro-1,6-naphthyridin-2(1H)-one]	< 1
CC1CN(c2ncc3c(n2)CCN(CC(=O)N2CCN(C4CCC4)CC2)C3)CC(C)O1 (stereo not drawn) [Compound 187, 6-[2-(4-cyclobutylpiperazin-1-yl)-2-oxoethyl]-2-(2,6-dimethylmorpholin-4-yl)-5,6,7,8-tetrahydropyrido[4,3-d]pyrimidine]	< 1
Cc1ccc(-n2cc3c(n2)CCN(CC(=O)N2CCN(C4CCC4)CC2)C3)nn1 [Compound 200, 5-[2-(4-cyclobutylpiperazin-1-yl)-2-oxoethyl]-2-(6-methylpyridazin-3-yl)-4,5,6,7-tetrahydro-2H-pyrazolo[4,3-c]pyridine]	< 1
O=C(CN1CCc2nc(N3CCCCC3)ccc2C1)N1CCN(C2CCC2)CC1 [Compound 222, 6-[2-(4-cyclobutylpiperazin-1-yl)-2-oxoethyl]-2-piperidin-1-yl-5,6,7,8-tetrahydro-1,6-naphthyridine]	< 1
O=C(CN1CCc2nc(N3CCC(O)C3)ccc2C1)N1CCN(C2CCC2)CC1 (stereo not drawn) [Compound 226, 1-{6-[2-(4-cyclobutylpiperazin-1-yl)-2-oxoethyl]-5,6,7,8-tetrahydro-1,6-naphthyridin-2-yl}pyrrolidin-3-ol]	< 1
CCC1CCC[C@H]2CN(C(=O)CN3CCc4cc(-n5ccc(C(F)(F)F)n5)ccc4C3)CCN12 (stereo in doubt) [Compound 161, 6-ethyl-2-({6-[3-(trifluoromethyl)-1H-pyrazol-1-yl]-3,4-dihydroisoquinolin-2(1H)-yl}acetyl)octahydro-2H-pyrido[1,2-a]pyrazine]	< 1
O=C(CN1CCc2nn(-c3cncc(C4CC4)n3)cc2C1)N1CCN(C2CCC2)CC1 [Compound 272, 5-[2-(4-cyclobutylpiperazin-1-yl)-2-oxoethyl]-2-(6-cyclopropylpyrazin-2-yl)-4,5,6,7-tetrahydro-2H-pyrazolo[4,3-c]pyridine]	< 1
CCC1CCC[C@H]2CN(C(=O)CN3CCc4cc(-n5cccn5)ccc4C3)CCN12 (stereo in doubt) [Compound 167, 6-ethyl-2-{[6-(1H-pyrazol-1-yl)-3,4-dihydroisoquinolin-2(1H)-yl]acetyl}octahydro-2H-pyrido[1,2-a]pyrazine]	< 1
Cc1c2c(nn1-c1ccc(Br)cn1)CCN(CC(=O)N1CCN(C3CCC3)CC1)C2 [Compound 273, 2-(5-bromopyridin-2-yl)-5-[2-(4-cyclobutylpiperazin-1-yl)-2-oxoethyl]-3-methyl-4,5,6,7-tetrahydro-2H-pyrazolo[4,3-c]pyridine]	< 1
O=C(CN1CCc2cc(N3CCOC3=O)ccc2C1)N1CCN(C2CCC2)CC1 [Compound 210, 3-{2-[2-(4-cyclobutylpiperazin-1-yl)-2-oxoethyl]-1,2,3,4-tetrahydroisoquinolin-6-yl}-1,3-oxazolidin-2-one]	< 1
O=C(CN1CCc2cc(-c3cncnc3)nnc2C1)N1CCN(C2CCC2)CC1 [Compound 232, 7-[2-(4-cyclobutylpiperazin-1-yl)-2-oxoethyl]-3-pyrimidin-5-yl-5,6,7,8-tetrahydropyrido[3,4-c]pyridazine]	< 1
CN(C)c1ccc(-n2cc3c(n2)CCN(CC(=O)N2CCN(C4CCC4)CC2)C3)nn1 [Compound 259, 6-{5-[2-(4-cyclobutylpiperazin-1-yl)-2-oxoethyl]-4,5,6,7-tetrahydro-2H-pyrazolo[4,3-c]pyridin-2-yl}-N,N-dimethylpyridazin-3-amine]	< 1
O=C(CN1CCc2nc(Cl)ccc2C1)N1CCN(C2CCC2)CC1 [Compound 168, 2-chloro-6-[2-(4-cyclobutylpiperazin-1-yl)-2-oxoethyl]-5,6,7,8-tetrahydro-1,6-naphthyridine]	< 1
O=C(CN1CCc2nn(-c3ncccn3)cc2C1)N1CCN(C2CCC2)CC1 [Compound 248, 5-[2-(4-cyclobutylpiperazin-1-yl)-2-oxoethyl]-2-pyrimidin-2-yl-4,5,6,7-tetrahydro-2H-pyrazolo[4,3-c]pyridine]	< 1
CS(=O)(=O)c1ccc(-c2nc3c(s2)CCN(CC(=O)N2CCN(C4CCC4)CC2)C3)cc1 [Compound 105, 5-[2-(4-cyclobutylpiperazin-1-yl)-2-oxoethyl]-2-[4-(methylsulfonyl)phenyl]-4,5,6,7-tetrahydro[1,3]thiazolo [4,5-c]pyridine]	< 1
Cn1cc(-n2cc3c(n2)CCN(CC(=O)N2CCN(C4CCC4)CC2)C3)ccc1=O [Compound 262, 5-{5-[2-(4-cyclobutylpiperazin-1-yl)-2-oxoethyl]-4,5,6,7-tetrahydro-2H-pyrazolo[4,3-c]pyridin-2-yl}-1-methylpyridin-2(1H)-one]	< 1

Same assay, conditions: assay of Example 7; "*" in Ki of Table II

Compound	Ki [µM]
O=C(CN1CCc2nc(-c3ccc(Cl)cc3Cl)sc2C1)N1CCN(C2CCC2)CC1 [Compound 359, 5-[2-(4-cyclobutylpiperazin-1-yl)-2-oxoethyl]-2-(2,4-dichlorophenyl)-4,5,6,7-tetrahydro[1,3]thiazolo [5,4-c]pyridine]	< 1
Cc1ccc(F)c(-c2nc3c(s2)CN(CC(=O)N2CCN(C4CCC4)CC2)CC3)c1 [Compound 302, 5-[2-(4-cyclobutylpiperazin-1-yl)-2-oxoethyl]-2-(2-fluoro-5-methylphenyl)-4,5,6,7-tetrahydro[1,3]thiazolo [5,4-c]pyridine]	< 1
O=C(CN1CCc2nc(-c3ccc(Cl)c(C(F)(F)F)c3)sc2C1)N1CCN(C2CCC2)CC1 [Compound 373, 2-[4-chloro-3-(trifluoromethyl)phenyl]-5-[2-(4-cyclobutylpiperazin-1-yl)-2-oxoethyl]-4,5,6,7-tetrahydro[1,3]thiazolo [5,4-c]pyridine]	< 1
O=C(CN1CCc2nc(-c3ccccc3C(F)(F)F)sc2C1)N1CCN(C2CCC2)CC1 [Compound 360, 5-[2-(4-cyclobutylpiperazin-1-yl)-2-oxoethyl]-2-[2-(trifluoromethyl)phenyl]-4,5,6,7-tetrahydro[1,3]thiazolo [5,4-c]pyridine]	< 1
O=C(CN1CCc2nc(-c3cccc(F)c3)sc2C1)N1CCN(C2CCC2)CC1 [Compound 298, 5-[2-(4-cyclobutylpiperazin-1-yl)-2-oxoethyl]-2-(3-fluorophenyl)-4,5,6,7-tetrahydro[1,3]thiazolo [5,4-c]pyridine]	< 1
